The source of these data is patent publication US9518066B2, “GAK modulators” (KATHOLIEKE UNIVERSITEIT LEUVEN, priority 2013, dated 2016).

In this experiment the target is T1, GAK kinase (Homo sapiens, UniProt O14976).
T1 construct: made in house; host or cells: E. coli host derived from the BL21 strain, infected with T7 phage
T1 sequence (O14976 1-1311): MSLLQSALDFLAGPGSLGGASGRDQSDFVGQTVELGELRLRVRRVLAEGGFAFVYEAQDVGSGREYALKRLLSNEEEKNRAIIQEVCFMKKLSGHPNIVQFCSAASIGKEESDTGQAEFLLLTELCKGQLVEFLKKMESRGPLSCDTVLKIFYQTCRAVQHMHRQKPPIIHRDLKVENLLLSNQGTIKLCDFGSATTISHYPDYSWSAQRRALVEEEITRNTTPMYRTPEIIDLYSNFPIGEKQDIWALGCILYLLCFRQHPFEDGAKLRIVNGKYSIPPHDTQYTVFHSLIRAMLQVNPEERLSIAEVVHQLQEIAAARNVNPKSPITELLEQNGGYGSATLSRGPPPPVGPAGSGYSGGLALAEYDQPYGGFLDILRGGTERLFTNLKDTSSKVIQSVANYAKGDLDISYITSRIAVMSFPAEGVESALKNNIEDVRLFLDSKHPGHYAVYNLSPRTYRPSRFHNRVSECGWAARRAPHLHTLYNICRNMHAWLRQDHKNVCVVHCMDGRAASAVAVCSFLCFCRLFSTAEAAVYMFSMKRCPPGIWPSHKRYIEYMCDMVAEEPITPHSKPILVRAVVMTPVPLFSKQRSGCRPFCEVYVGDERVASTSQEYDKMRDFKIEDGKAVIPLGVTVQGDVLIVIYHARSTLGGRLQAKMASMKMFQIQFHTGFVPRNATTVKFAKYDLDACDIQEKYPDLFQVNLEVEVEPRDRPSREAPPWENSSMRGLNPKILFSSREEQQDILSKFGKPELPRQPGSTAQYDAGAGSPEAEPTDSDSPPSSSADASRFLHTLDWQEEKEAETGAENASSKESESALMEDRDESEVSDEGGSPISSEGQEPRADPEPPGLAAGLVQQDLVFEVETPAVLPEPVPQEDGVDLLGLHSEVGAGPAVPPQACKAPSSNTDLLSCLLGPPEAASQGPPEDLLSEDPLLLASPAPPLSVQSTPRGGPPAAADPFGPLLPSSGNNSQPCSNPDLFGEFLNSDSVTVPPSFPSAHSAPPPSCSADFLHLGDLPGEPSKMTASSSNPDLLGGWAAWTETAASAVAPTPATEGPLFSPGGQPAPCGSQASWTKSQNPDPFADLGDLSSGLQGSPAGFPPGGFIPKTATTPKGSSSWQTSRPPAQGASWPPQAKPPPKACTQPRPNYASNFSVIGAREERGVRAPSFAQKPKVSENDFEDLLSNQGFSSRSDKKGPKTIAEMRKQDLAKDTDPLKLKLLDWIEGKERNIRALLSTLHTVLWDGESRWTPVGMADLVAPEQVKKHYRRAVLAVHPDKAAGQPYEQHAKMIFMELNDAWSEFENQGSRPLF
Put plainly: GAK binding assay (T7 phage kinase competition binding). The settings on record: for remaining binding at 10 µM: single concentration of 10 μM, lower numbers indicate stronger hits, read-out: % Ctrl; for Kd: determined for selected compounds with % control <5 at 10 μM. The procedure:
The compounds of the invention were assayed for their GAK kinase binding affinity using the protocols, as described in Fabian, M. A. et al. A small molecule-kinase interaction map for clinical kinase inhibitors. Nat. Biotechnol.
T7 kinase-tagged phage strains were grown in parallel in 24- or 96-well blocks in an E. coli host derived from the BL21 strain. E. coli were grown to log phase and infected with T7 phage from a frozen stock (multiplicity of infection ˜0.1) and incubated with shaking at 32° C. until lysis (˜90 min). The lysates were centrifuged (6,000 g) and filtered ([…]) to remove cell debris. […] The liganded beads were blocked with excess biotin and washed with blocking buffer (SeaBlock (Pierce), 1% BSA, 0.05% Tween 20, 1 mM DTT) to remove unbound ligand and to reduce nonspecific phage binding. […] Test compounds were prepared as 1,000× stocks in DMSO and rapidly diluted into the aqueous environment (0.1% DMSO final). DMSO (0.1%) was added to control assays lacking a test compound. All reactions were carried out in polystyrene 96-well plates that had been pretreated with blocking buffer in a final volume of 0.1 ml. […] The phage titer in the eluates was measured by standard plaque assays or by quantitative PCR.
The compounds were tested at a single concentration of 10 μM.
[formula] Binding Constant Measurements
Kd(probe) is the binding constant for the interaction between the kinase and the immobilized ligand, [Probe] is the concentration of the immobilized ligand and [test]1/2 is the concentration of the free test compound at the midpoint of the transition. If [Probe] is below Kd(probe) the expression simplifies to Kd(test)=[test]1/2. Under these conditions the binding constants measured for the interaction between kinases and test compounds (Kd(test)) are therefore independent of the affinity of the immobilized ligand for the kinase (Kd(probe)). T7 phage grow to a titer of 10^8-10^10 plaque forming units (PFU)/ml, and the concentration of phage-tagged kinase in the binding reaction is therefore in the low picomolar range. […] Clustering and visualization was performed with Cluster 3.0 (M. Eisen, Stanford University) and Mapletree software (M. Eisen, Stanford University; L. Simirenko, Lawrence Berkeley National Lab).

Consider “6-bromo-6-ethanolamino-isothiazolo[4,3-b]pyridine [Example 12]”, for which the “% Ctrl” value (10 µM) was found to be 62%.
`Nc1snc2cc(Br)cnc12` [Example 3, 3-amino-6-bromo-Isothiazolo[4,3-b]pyridine]: the remaining binding at 10 µM amounted to 97%.
Regarding `Brc1cnc2c(N3CCOCC3)snc2c1` [Example 11, 6-bromo-3-morpholino-isothiazolo[4,3-b]pyridine], the remaining binding at 10 µM was found to be 50%.
On the same count and under the same terms, for `COc1snc2cc(Br)cnc12` [Example 14, 3-methoxy-6-bromo-isothiazolo[4,3-b]pyridine] the value was 100%.
Consider `COc1snc2cc(-c3ccccc3)cnc12` [Example 33, 3-methoxy-6-phenyl-isothiazolo[4,3-b]pyridine], for which the remaining binding at 10 µM stood at 9.4%.
For the compound `COc1snc2cc(-c3cccnc3)cnc12` [Example 35, 3-methoxy-6-(3-pyridyl)-isothiazolo[4,3-b]pyridine], the remaining binding at 10 µM amounted to 93%.
As for `COc1ccc(-c2cnc3c(OC)snc3c2)cc1OC` [Example 36, 3-methoxy-6-(3,4-dimethoxyphenyl)-isothiazolo[4,3-b]pyridine], the remaining binding at 10 µM stood at 19%.
Consider `COc1snc2cc(-c3ccsc3)cnc12` [Example 37, 3-methoxy-6-(3-thienyl)-isothiazolo[4,3-b]pyridine], for which the remaining binding at 10 µM amounted to 22%.
What is called Kd is the concentration at which binding is half-saturated. Take `COC(=O)c1ccc(-c2cnc3c(N4CCOCC4)snc3c2)cc1OC` [Example 46, Methyl 2-methoxy-4-(3-morpholinoisothiazolo[4,3-b]pyridin-6-yl)benzoate]: the Kd worked out at 19 nM and the remaining binding at 10 µM came to 2.8%.
Regarding `COC(=O)c1ccc(-c2cnc3c(N4CCOCC4)snc3c2)cc1` [Example 53, Methyl 4-(3-morpholinoisothiazolo[4,3-b]pyridin-6-yl)benzoate], the remaining binding at 10 µM worked out at 9%.
`CNC(=O)c1ccc(-c2cnc3c(N4CCOCC4)snc3c2)cc1` [Example 54, N-Methyl-4-(3-morpholinoisothiazolo[4,3-b]pyridin-6-yl)benzamide]: the Kd is 88 nM and the remaining binding at 10 µM stood at 0.05%.
For the compound `COc1cc(Br)c(-c2cnc3c(N4CCOCC4)snc3c2)cc1OC` [Example 60, 4-(6-(2-bromo-4,5-dimethoxyphenyl)isothiazolo[4,3-b]pyridin-3-yl)morpholine], the Kd was determined as 180 nM and the remaining binding at 10 µM worked out at 1.1%.
`COc1cccc(-c2cnc3c(N4CCOCC4)snc3c2)c1` [Example 61, 4-(6-(3-methoxyphenyl)isothiazolo[4,3-b]pyridin-3-yl)morpholine]: the Kd came out at 180 nM and the remaining binding at 10 µM turned out to be 0.05%.
For `COc1ccc(-c2cnc3c(N4CCOCC4)snc3c2)cc1OC(C)=O` [Example 62, 2-methoxy-5-(3-morpholinoisothiazolo[4,3-b]pyridin-6-yl)phenyl acetate], in that order: 82 nM and 0%.
For the compound `COc1ccc(-c2cnc3c(N4CCOCC4)snc3c2)cc1` [Example 63, 4-(6-(4-methoxyphenyl)isothiazolo[4,3-b]pyridin-3-yl)morpholine], the Kd was found to be 140 nM and the remaining binding at 10 µM was found to be 0.6%.
For `COc1ccc(-c2cnc3c(N4CCC(=O)CC4)snc3c2)cc1OC` [Example 65, 1-(6-(3,4-dimethoxyphenyl)isothiazolo[4,3-b]pyridin-3-yl)piperidin-4-one], in that order: 31 nM and 0%.
In the case of `COc1ccc(-c2cnc3c(NCCCCCO)snc3c2)cc1OC` [Example 67, 5-(6-(3,4-dimethoxyphenyl)isothiazolo[4,3-b]pyridin-3-ylamino)pentan-1-ol], binding was put at a Kd of 210 nM and the remaining binding at 10 µM came out at 0.85%.
Consider `COc1ccc(-c2cnc3c(N4CCCC(O)C4)snc3c2)cc1OC` (stereo not shown) [Example 68, 1-(6-(3,4-dimethoxyphenyl)isothiazolo[4,3-b]pyridin-3-yl)piperidin-3-ol], for which the Kd is 69 nM and the remaining binding at 10 µM was 0.05%.
For `COc1ccc(-c2cnc3c(NCC(O)CO)snc3c2)cc1OC` (stereo not shown) [Example 71, 3-(6-(3,4-dimethoxyphenyl)isothiazolo[4,3-b]pyridin-3-ylamino)propane-1,2-diol], binding was put at a Kd of 330 nM and the remaining binding at 10 µM was determined as 2.6%.
`CCOC(=O)N1CCC(Nc2snc3cc(-c4ccc(OC)c(OC)c4)cnc23)CC1` [Example 72, ethyl 4-(6-(3,4-dimethoxyphenyl)isothiazolo[4,3-b]pyridin-3-ylamino)piperidine-1-carboxylate]: the remaining binding at 10 µM came to 40%.
With `CCN(CC)c1snc2cc(-c3ccc(OC)c(OC)c3)cnc12` [Example 79, 6-(3,4-dimethoxyphenyl)-N,N-diethylisothiazolo[4,3-b]pyridin-3-amine], the Kd came out at 210 nM and the remaining binding at 10 µM was 0.05%.
`COc1ccc(-c2cnc3c(N4CCC5(CC4)OCCO5)snc3c2)cc1OC` [Example 81, 8-(6-(3,4-dimethoxyphenyl)isothiazolo[4,3-b]pyridin-3-yl)-1,4-dioxa-8-azaspiro[4.5]decane]: the remaining binding at 10 µM was found to be 12%.
As for `COc1ccc(-c2cnc3c(-c4ccccc4)snc3c2)cc1OC` [Example 82, 6-(3,4-dimethoxyphenyl)-3-phenylisothiazolo[4,3-b]pyridine], binding was put at a Kd of 260 nM and the remaining binding at 10 µM turned out to be 0.15%.
In the same order, the values of `COc1ccc(-c2cnc3c(-c4ccncc4)snc3c2)cc1OC` [Example 83, 6-(3,4-dimethoxyphenyl)-3-(pyridin-4-yl)isothiazolo[4,3-b]pyridine] are 52 nM and 0.05%.
Take `COc1ccc(-c2cnc3c(-c4ccsc4)snc3c2)cc1OC` [Example 84, 6-(3,4-dimethoxyphenyl)-3-(thiophen-3-yl)isothiazolo[4,3-b]pyridine]: binding was characterised by a dissociation constant (Kd) of 140 nM and the remaining binding at 10 µM is 0%.
`COc1ccc(-c2cnc3csnc3c2)cc1OC` [Example 85, 6-(3,4-dimethoxyphenyl)isothiazolo[4,3-b]pyridine]: the remaining binding at 10 µM worked out at 31%.
With `COc1cc(Br)c(-c2cnc3c(N4CCC(C)CC4)snc3c2)cc1OC` [Example 86, 6-(2-bromo-4,5-dimethoxyphenyl)-3-(4-methylpiperidin-1-yl)isothiazolo[4,3-b]pyridine], the remaining binding at 10 µM came to 92%.
Consider `CCOc1snc2cc(-c3cc(OC)c(OC)cc3Br)cnc12` [Example 87, 6-(2-bromo-4,5-dimethoxyphenyl)-3-ethoxyisothiazolo[4,3-b]pyridine], for which the Kd amounted to 330 nM and the remaining binding at 10 µM worked out at 4.3%.
